Series [1] is described as follows: log P by HPLC on a reversed-phase column (C 18), EEC Directive 79/831 Annex V.A8. The format is physicochemical. The note with it: for LOGP_HCOOH: acidic range, pH 2.7, 0.1% aqueous formic acid/acetonitrile; for LOGP_HCOOH / LOGP_NEUTRAL: 55° C.; for LOGP_NEUTRAL: pH 7.8, 0.001 molar aqueous ammonium hydrogencarbonate/acetonitrile. The method, then:
The log P values are measured according to EEC Directive 79/831 Annex V.A8 by HPLC (high-performance liquid chromatography) on a reversed-phase column (C 18). Temperature: 55° C.
The LC-MS determination in the acidic range is effected at pH 2.7 using 0.1% aqueous formic acid and acetonitrile (contains 0.1% formic acid) as eluents; linear gradient from 10% acetonitrile to 95% acetonitrile. Called log P (HCOOH) in the table.
LC-MS determination in the neutral range is effected at pH 7.8 with 0.001 molar aqueous ammonium hydrogencarbonate solution and acetonitrile as eluents; linear gradient from 10% acetonitrile to 95% acetonitrile. Called log P (neutral) in the table.
Calibration is carried out using unbranched alkan-2-ones (having 3 to 16 carbon atoms) with known log P values (log P values determined on the basis of the retention times by linear interpolation between two successive alkanones).

For series [2], the system named is Ctenocephalides felis. In words: Ctenocephalides felis - in vitro contact tests with adult cat fleas. The format is in vivo. The following applies: 5 μg/cm^2 (=500 g/ha), after 48 h, adult cat fleas dead or moribund. How it is done:
For the coating of the test tubes, 9 mg of active compound are first dissolved in 1 ml of acetone p.a. and then diluted to the desired concentration with acetone p.a. 250 μl of the solution are distributed homogeneously on the inner walls and the base of a 25 ml test tube by turning and rocking on an orbital shaker (rocking rotation at 30 rpm for 2 h). With 900 ppm active compound solution and internal surface 44.7 cm^2, given homogeneous distribution, an area-based dose of 5 μg/cm^2 is achieved.
After the solvent has evaporated off, the tubes are populated with 5-10 adult cat fleas (Ctenocephalides felis), sealed with a perforated plastic lid and incubated in a horizontal position at room temperature and ambient humidity. After 48 h, efficacy is determined. To this end, the test tubes are stood upright and the fleas are knocked to the base of the tube. Fleas which remain motionless at the base or move in an uncoordinated manner are considered to be dead or moribund.
100% efficacy means that all the fleas were dead or moribund. 0% efficacy means that no fleas were harmed.

Another series relates to Boophilus microplus. Put plainly: Boophilus microplus - injection test. The format is in vivo. The following applies: 20 μg/animal injected, engorged adult female cattle ticks, laying of fertile eggs after 7 days. How it is done: • Solvent: dimethyl sulphoxide
To produce a suitable preparation of active compound, 10 mg of active compound are mixed with 0.5 ml of solvent and the concentrate is diluted with solvent to the desired concentration.
1 μl of the active compound solution is injected into the abdomen of 5 engorged adult female cattle ticks (Boophilus microplus). The animals are transferred into dishes and kept in a climate-controlled room.
Efficacy is assessed after 7 days by laying of fertile eggs. Eggs which are not visibly fertile are stored in a climate-controlled cabinet until the larvae hatch after about 42 days. An efficacy of 100% means that none of the ticks has laid any fertile eggs; 0% means that all the eggs are fertile.

The subject of series [3] is Ctenocephalides felis. Put plainly: Ctenocephalides felis - oral test. Format: in vivo. The following applies: 100 ppm in citrated cattle blood, after 2 days, adult cat fleas. How it is done: • Solvent: dimethyl sulphoxide To produce a suitable preparation of active compound, 10 mg of active compound are mixed with 0.5 ml of dimethyl sulphoxide. Dilution with citrated cattle blood gives the desired concentration. About 20 unfed adult cat fleas (Ctenocephalides felis) are placed into a chamber which is closed at the top and bottom with gauze. A metal cylinder whose bottom end is closed with parafilm is placed onto the chamber. The cylinder contains the blood/active compound preparation, which can be imbibed by the fleas through the parafilm membrane. After 2 days, the kill in % is determined. 100% means that all of the fleas have been killed; 0% means that none of the fleas have been killed.

In a further series the test system is Lucilia cuprina. In words: Lucilia cuprina test. Format: in vivo. The note with it: 100 ppm, after 2 days, L1 larvae. How it is done:
• Solvent: dimethyl sulphoxide To produce a suitable preparation of active compound, 10 mg of active compound are mixed with 0.5 ml of dimethyl sulphoxide, and the concentrate is diluted with water to the desired concentration. About 20 L1 larvae of the Australian sheep blowfly (Lucilia cuprina) are transferred into a test vessel containing minced horsemeat and the active compound preparation of the desired concentration. After 2 days, the kill in % is determined. 100% means that all the larvae have been killed; 0% means that no larvae have been killed.

Another series deals with Musca domestica. In words: Musca domestica test. Format: in vivo. The following applies: after 2 days, adult houseflies. How it is done:
• Solvent: dimethyl sulphoxide To produce a suitable preparation of active compound, 10 mg of active compound are mixed with 0.5 ml of dimethyl sulphoxide, and the concentrate is diluted with water to the desired concentration. Vessels containing a sponge treated with sugar solution and the active compound preparation of the desired concentration are populated with 10 adult houseflies (Musca domestica). After 2 days, the kill in % is determined. 100% means that all of the flies have been killed; 0% means that none of the flies have been killed.

A further series relates to Phaedon cochleariae. Put plainly: Phaedon cochleariae - spray test. Format: in vivo. The note with it: 500 g/ha, after 7 days, larvae on Chinese cabbage leaf discs. How it is done: (§1) • Solvent: 78.0 parts by weight of acetone • 1.5 parts by weight of dimethylformamide • Emulsifier: alkylaryl polyglycol ether
(§2) To produce a suitable preparation of active compound, 1 part by weight of active compound is dissolved using the stated parts by weight of solvent and made up with water containing an emulsifier concentration of 1000 ppm until the desired concentration is attained. To produce further test concentrations, the preparation is diluted with emulsifier-containing water.
After 7 days, the efficacy in % is determined. 100% means that all the beetle larvae have been killed; 0% means that no beetle larvae have been killed.

Another series has as its system Spodoptera frugiperda. In words: Spodoptera frugiperda - spray test. Format: in vivo. The note with it: 500 g/ha, after 7 days, caterpillars on maize leaf discs. The method, then:
as §1, §2
Leaf discs of maize (Zea mays) are sprayed with an active compound preparation of the desired concentration and, after drying, populated with caterpillars of the armyworm (Spodoptera frugiperda).
After 7 days, the efficacy in % is determined. 100% means that all the caterpillars have been killed; 0% means that no caterpillars have been killed.

For a further series, the system named is Myzus persicae. Put plainly: Myzus persicae - spray test (Chinese cabbage leaf discs). Format: in vivo. The following applies: 500 g/ha, after 5-6 days. The method, then: • Solvent: 78 parts by weight of acetone • 1.5 parts by weight of dimethylformamide • Emulsifier: alkylaryl polyglycol ether
as §2
Discs of Chinese cabbage leaves (Brassica pekinensis) infested by all stages of the green peach aphid (Myzus persicae) are sprayed with an active compound preparation of the desired concentration.
After 5-6 days, the efficacy in % is determined. 100% means that all the aphids have been killed; 0% means that no aphids have been killed.

The next series concerns Rhipicephalus sanguineus. In words: Rhipicephalus sanguineus - in vitro contact tests with adult brown dog ticks. The following applies: 5 μg/cm^2 (=500 g/ha), after 48 h, adult dog ticks dead or moribund. Format: in vivo. How it is done:
For the coating of the test tubes, 9 mg of active compound are first dissolved in 1 ml of acetone p.a. and 20 then diluted to the desired concentration with acetone p.a. 250 μl of the solution are distributed homogeneously on the inner walls and the base of a 25 ml test tube by turning and rocking on an orbital shaker (rocking rotation at 30 rpm for 2 h). With 900 ppm active compound solution and internal surface 44.7 cm^2, given homogeneous distribution, an area-based dose of 5 μg/cm^2 is achieved.
After the solvent has evaporated off, the tubes are populated with 5-10 adult dog ticks (Rhipicephalus sanguineus), sealed with a perforated plastic lid and incubated in a horizontal position in the dark at room temperature and ambient humidity. After 48 h, efficacy is determined. To this end, the ticks are knocked to the base of the tube and incubated on a hotplate at 45-50° C. for not more than 5 min. Ticks which remain motionless on the base or move in such an uncoordinated manner that they are unable to deliberately avoid the heat by climbing upwards are considered to be dead or moribund.
An efficacy of 100% means that all the ticks were dead or moribund. 0% efficacy means that none of the ticks were harmed.

The next series relates to Haemonchus contortus. In words: Haemonchus contortus test. Format: in vivo. The note with it: 20 ppm, after 5 days, larvae. The method, then: • Solvent: Dimethyl Sulphoxide To produce a suitable preparation of active compound, 10 mg of active compound are mixed with 0.5 ml of dimethyl sulphoxide and the concentrate is diluted with “Ringer's solution” to the desired concentration. Vessels containing the active compound preparation of the desired concentration are populated with about 40 larvae of the red stomach worm (Haemonchus contortus). After 5 days, the kill in % is determined. 100% means that all the larvae have been killed; 0% means that none of the larvae have been killed.

Another series deals with Tetranychus urticae. Put plainly: Tetranychus urticae - spray test, OP-resistant. Format: in vivo. The following applies: 500 g/ha, after 6 days, bean leaf discs. The method, then:
as §1, §2
Discs of bean leaves (Phaseolus vulgaris) infested with all stages of the greenhouse red spider mite (Tetranychus urticae) are sprayed with an active compound preparation of the desired concentration.
After 6 days, the efficacy in % is determined. 100% means that all the spider mites have been killed; 0% means that no spider mites have been killed.

Another series concerns Meloidogyne incognita. Put plainly: Meloidogyne incognita test. The format is in vivo. The note with it: 20 ppm, after 14 days, formation of galls on lettuce roots. The method, then: • Solvent: 125.0 parts by weight of acetone To produce a suitable preparation of active compound, 1 part by weight of active compound is mixed with the stated amount of solvent and the concentrate is diluted with water to the desired concentration. Vessels are filled with sand, active compound solution, an egg/larvae suspension of the southern root-knot nematode (Meloidogyne incognita) and lettuce seeds. The lettuce seeds germinate and the plants develop. The galls develop on the roots. After 14 days, the nematicidal efficacy in % is determined by the formation of galls. 100% means that no galls were found; 0% means that the number of galls on the treated plants corresponds to the untreated control.

In series [1], `CC[S+]([O-])c1c(-c2nc3cc(C(F)(F)F)ncc3n2C)nc2cc(C(F)(F)F)ccn12` (stereo not shown) [Example I-18] had an LOGP_HCOOH of 3.29. Also, the LOGP_NEUTRAL in [1] (neutral range) was 3.25. Further, the efficacy in the series with Ctenocephalides felis [2] worked out at 100%; in the series on Boophilus microplus, 95%; in the series on Phaedon cochleariae it was 100%; in the series with Spodoptera frugiperda, 100%. The “efficacy (kill)” value in the series with Ctenocephalides felis [3] came out at 100%; in the series with Lucilia cuprina it was 100%; in the series on Musca domestica (4 ppm) it was 95%.

In the case of `CCS(=O)(=O)c1c(-c2nc3cc(C(F)(F)F)ncc3n2C)nc2ccccn12` [Example I-1, 2-(3-Ethylsulphonylimidazo[1,2-a]pyridin-2-yl)-3-methyl-6-(trifluoromethyl)imidazo[4,5-c]pyridine], the LOGP_HCOOH in [1] is reported as 2.08. This compound gave an LOGP_NEUTRAL in series [1] (neutral range) of 2.05. Besides, in series [1] (reversed-phase HPLC column (C 18), neutral range, pH 7.8, value in preparation example text, read-out: log P (neutral)), the chromatographic logP worked out at 2.07. The efficacy in the series on Ctenocephalides felis [2] came out at 100%; with Myzus persicae it was 90%; in the series with Phaedon cochleariae, 83%; with Spodoptera frugiperda it was 100%. For the same compound, the “efficacy (kill)” value came out at 98% with Ctenocephalides felis [3], 100% in the series on Lucilia cuprina and 85% in the series with Musca domestica (4 ppm).

In series [1], `CCS(=O)(=O)c1c(-c2nc3cc(C(F)(F)F)ccc3n2C)nc2ccc(C)cn12` [Example I-35] gave an LOGP_HCOOH of 2.98. Besides, the efficacy with Ctenocephalides felis [2] came to 100%; in the series with Rhipicephalus sanguineus, 80%; with Myzus persicae, 90%; in the series with Spodoptera frugiperda it was 100%.

Consider `CCS(=O)(=O)c1c(-c2nc3cc(C(F)(F)F)ncc3n2C)nc2ccc(C(F)(F)F)cn12` [Example I-6], for which, in series [1], the LOGP_HCOOH came to 3.09. The LOGP_NEUTRAL in [1] (neutral range) came to 3.06. For the same compound, the efficacy is 100% in the series on Ctenocephalides felis [2], 90% with Myzus persicae, 100% in the series with Phaedon cochleariae and 100% in the series on Spodoptera frugiperda. Besides, the “efficacy (kill)” value in the series with Ctenocephalides felis [3] is given as 100%; in the series on Lucilia cuprina, 100%; in the series with Musca domestica (20 ppm), 90%.

`CCS(=O)(=O)c1c(-c2nc3cc(C(F)(F)F)ncc3n2C)nc2cc(C(F)(F)F)ccn12` [Example I-17] returned an LOGP_HCOOH in [1] of 3.00. Also, the LOGP_NEUTRAL in [1] (neutral range) is 2.98. Also, the efficacy in the series with Ctenocephalides felis [2], with Myzus persicae, in the series with Phaedon cochleariae and in the series on Spodoptera frugiperda was 100% in each case. Also, the “efficacy (kill)” value is recorded as 100% in the series on Ctenocephalides felis [3], 100% in the series with Lucilia cuprina and 80% in the series with Musca domestica (4 ppm).

As to `CCS(=O)(=O)c1c(-c2nc3cc(C(F)(F)F)cnc3n2C)nc2ccccn12` [Example I-59], in series [1], the LOGP_HCOOH was determined as 2.58. In addition, the LOGP_NEUTRAL in [1] (neutral range) is recorded as 2.49. Moreover, the efficacy in the series with Ctenocephalides felis [2] is recorded as 100%; with Rhipicephalus sanguineus it was 100%; with Myzus persicae, 90%; with Phaedon cochleariae, 100%; with Spodoptera frugiperda it was 100%; in the series on Tetranychus urticae, 90%. Moreover, the “efficacy (kill)” value worked out at 80% with Ctenocephalides felis [3], 80% in the series with Haemonchus contortus, 100% in the series on Lucilia cuprina and 80% in the series with Musca domestica (20 ppm).

Turning to `CCSc1c(-c2nc3cc(C(F)(F)F)cnc3n2C)nc2ccccn12` [Example I-52], the LOGP_HCOOH in [1] is given as 3.43. This compound returned an LOGP_NEUTRAL in [1] (neutral range) of 3.39. The nematicidal efficacy in the series with Meloidogyne incognita stood at 100%. Besides, in the series on Phaedon cochleariae, the efficacy is recorded as 100%.
